# Reference: paper PMC13576449, “Small-Molecule Activators of PRMT1: Discovery, SAR Analyses, and Proapoptotic Effects in Pancreatic Cancer Cells” (Journal of Medicinal Chemistry, 2026)
# Experiments:
# [1] = target: T1, FLAG-tagged PRMT6 (Homo sapiens, UniProt Q96LA8); assay: Fluorescence-based in vitro PRMT assay (F-PRMT assay), PRMT6; format: biochemical; conditions: for Experimental result (PRMT6): vs solvent control = 100%
# T1 construct: The complete ORFs of human PRMT3 and PRMT6 were inserted; made in house; host or cells: Sf9 insect cells (baculovirus)
# How it was run: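 Baculovirus/Sf9-expressed FLAG-PRMTs (human PRMT3, PRMT6; mouse PRMT4), anti-FLAG purified and used bead-bound, methylated Bz-Arg-AMC with SAM for 2 h at 37 °C, 1,000 rpm. Technical triplicates; no-SAM negative controls.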
# [2] = system: PaTu8988T cells; assay: CaspaseGlo 3/7 apoptosis assay, PaTu8988T; format: cell-based, human; conditions: 72 h
# Experimental: 6 Effect of small-molecule modulators on gemcitabine-induced apoptosis and tumor growth of PDAC cells. […] After 2 h, gemcitabine (GEM) was added at increasing concentrations (10 and 25 nM) or not (−) for another incubation of 72 h. Subsequently, the luminescence-based caspase3/7 assay was performed. The activity of caspase 3/7 in treated cells was normalized to the activity measured in untreated cells (dark gray bar), which was set to 1 (mean SD, n = 6 for PANC-1 and n = 4 for PaTu8988T; *: p ≤ 0.05, **: p ≤ 0.01, ***: p ≤ 0.001, using the student t-test). […] After 24 h, gemcitabine (GEM, 1 μM) was added (+) or not (−) for another incubation of 48 h. Subsequently, the apoptotic cell fraction was quantified in % by flow cytometry using FITC-labeled Annexin V (AV) and propidium iodide (PI) staining (in B: mean ± SD, n = 6 for PANC-1 and n = 5 for PaTu8988T; **: p ≤ 0.01, ***: p ≤ 0.001, ****: p ≤ 0.0001, using the student t-test). […] Viable cells are AV/PI double-negative (AV–/PI–, lower left quadrant, Q4), early apoptotic cells are AV single-positive (AV+/PI– upper left quadrant, Q1), late apoptotic cells are AV/PI double-positive (AV+/PI+, upper right quadrant, Q2), and necrotic cells are PI single-positive (AV–/PI+, lower right quadrant, Q3). The sum of early and late apoptotic cell numbers ([…] in %) is indicated in red. D-G: The workflow of the PDAC xenograft experiments in mice is depicted in D. PANC-1 cells (2 × 10^6 cells/mouse) were subcutaneously (s.c.) injected in the right flank of female athymic nude mice. Small tumor nodules appeared 6 days post-engraftment. […] Tumor volumes were measured every second day using a digital caliper. […] At the end of the 2 weeks, mice were sacrificed and tumors were dissected (F).
# For quantification of apoptosis using the CaspaseGlo 3/7 assay (Promega), PANC-1 and PaTu8988T cells were seeded in triplicates in white 96-well plate (5 × 10^3 cells/well) and cultured in the absence or presence of compounds. After 2 h, as soon as the cells had settled, gemcitabine was added or not, and cells were incubated for another 72 h. Subsequently, the caspase3/7 activity was measured using the luminescence-based CaspaseGLO-3/7 assay (Promega). To this end, the CaspaseGlo reagent was subsequently added to the cells at a 1:1 ratio and incubated at room temperature and under agitation for 30 min protected from light. The luminescence measurements were carried out using a microplate reader (Mithras LB 940, Berthold).
# [3] = Tolerability, body weight monitoring of xenograft mice; conditions: female athymic nude mice, 150 mg/kg TR-07 daily, 10 mg/kg gemcitabine every second day, 2 weeks
# T1 sequence (Q96LA8 whole entry): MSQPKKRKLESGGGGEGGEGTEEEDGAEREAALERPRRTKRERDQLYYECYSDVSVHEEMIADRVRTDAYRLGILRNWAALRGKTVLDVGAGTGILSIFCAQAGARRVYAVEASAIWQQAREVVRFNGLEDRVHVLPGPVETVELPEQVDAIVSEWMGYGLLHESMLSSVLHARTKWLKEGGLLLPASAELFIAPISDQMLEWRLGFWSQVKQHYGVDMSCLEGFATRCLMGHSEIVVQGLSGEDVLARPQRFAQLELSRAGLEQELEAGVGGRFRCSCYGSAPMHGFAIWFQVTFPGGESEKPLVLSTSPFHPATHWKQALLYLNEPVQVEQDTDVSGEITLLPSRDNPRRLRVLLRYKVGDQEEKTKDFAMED
smiles,measurement,setting,value
"CN(C)Cc1cccc(CN/C=C2\C(=O)NC(=O)c3ccccc32)c1.Cl [TR-07, (Z)-1-[3-({[(1,3-Dioxo-2,3-dihydroisoquinolin-4(1H)-lidene)methyl]amino}methyl)phenyl]-N,N-dimethylmethanaminium chloride]",effect on PRMT6 activity (in words),[1]; 100 μM compound,neither positively nor negatively influencing
same,Experimental result (PRMT6),"[1]; Table 1, 100 μM compound, 2 μM PRMT, n = 3, racemates used","PRMT6 n.e. (Compounds, which did not significantly affect the catalytic activity (less than ±6% change or not significant p-value), are marked with [drawing 8] (no effect))"
same,Experimental result (PRMT6),"[1]; Table S3, 100 µM compound, n≥3","n.e. (did not significantly affect the catalytic activity (less than ±6% change or not significant p-value), are marked with n.e. (no effect))"
same,"apoptosis, caspase 3/7 activity, single agent",[2]; TR-07 10 μM or gemcitabine 10 and 25 nM,did not significantly induce apoptosis
same,"gemcitabine-induced apoptosis, caspase 3/7 activity, co-treatment","[2]; compound 10 μM, after 2 h gemcitabine 10 and 25 nM",further significantly enhanced
same,"tolerability (adverse or systemic toxic effects, body weights)",[3],well tolerated
